The compounds below were run against T1, farnesyl protein transferase (Rattus norvegicus, UniProt Q02293+Q04631) (assay: FPT IC50 (inhibition of farnesyl protein transferase, in vitro enzyme assay; Ras-CVLS farnesylation by partially purified rat brain FPT)).
T1 construct: partially purified rat brain farnesyl protein transferase (FPT); from tissue; host or cells: rat brain
Assay type: biochemical
Experimental: 1. In vitro enzyme assays: FPT IC50 (inhibition of farnesyl protein transferase, in vitro enzyme assay) are determined by the methods disclosed in […] or WO 95/10516.
Work on `CN1CCN(NC(=NC#N)N2CCC(=C3c4ccc(Cl)cc4CCc4cc(Br)cnc43)CC2)CC1` [Example 31] yielded an IC50 of 260 nM.
For `N#CN=C(Nc1cccnc1)N1CCC(=C2c3ccc(Cl)cc3CCc3cc(Br)cnc32)CC1` [Example 23], the IC50 was 140 nM.
`N#CN=C(NCc1ccncc1)N1CCC(C2c3ccc(Cl)c(Br)c3CCc3cc(Br)cnc32)CC1` (stereo not drawn) [Example 67] gave an IC50 of 1.7 nM.
For `Cn1c(NC(=NC#N)N2CCC(=C3c4ccc(Cl)cc4CCc4cc(Br)cnc43)CC2)cc(=O)n(C)c1=O` [Example 50], the IC50 was 300 nM.
With `N#CN=C(Nc1ccc2c(c1)COCO2)N1CCC(=C2c3ccc(Cl)c(Br)c3CCc3cccnc32)CC1` [Example 47] the IC50 was 14 nM.
`N#CN=C(NCc1ccncc1)N1CCC(=C2c3ccc(Cl)c(Br)c3CCc3cc(Br)cnc32)CC1` [Example 61] gave an IC50 of 5 nM.
In the case of `CSC(=NC#N)N1CCC(=C2c3ccc(Cl)c(Br)c3CCc3cc(Br)cnc32)CC1` [Example 56], the IC50 is reported as 42 nM.
Compound `N#CN=C(Nc1ccc2ncccc2c1)N1CCC(=C2c3ccc(Cl)cc3CCc3cc(Br)cnc32)CC1` [Example 46] has an IC50 of 150 nM.
For `N#CN=C(NCc1ccc(N)cc1)N1CCC(=C2c3ccc(Cl)cc3CCc3cc(Br)cnc32)CC1` [Example 53], the IC50 was 87 nM.
Work on `N#CN=C(NCc1cccnc1)N1CCC(=C2c3ccc(Cl)c(Br)c3CCc3cc(Br)cnc32)CC1` [Example 75] yielded an IC50 of 4.8 nM.
Compound `N#CN=C(N)N1CCC(=C2c3ccc(Cl)cc3CCc3cc(Br)cnc32)CC1` [Example 33] has an IC50 of 2800 nM.
In the case of `N#CN=C(Nc1ccc2c(c1)COCO2)N1CCN(C2c3ccc(Cl)cc3CCc3cc(Br)cnc32)CC1` (stereo not drawn) [Example 24], the IC50 is reported as 10 nM.
`N#CN=C(NCC1CCNCC1)N1CCC(=C2c3ccc(Cl)c(Br)c3CCc3cc(Br)cnc32)CC1` [Example 76] was tested, and the IC50 was 4.7 nM.
With `N#CN/C(=N/Cc1ccc2c(c1)OCO2)N1CCC(=C2c3ccc(Cl)cc3CCc3cc(Br)cnc32)CC1` [Example 52] the IC50 was 24 nM.
`CSC(=NC#N)N1CCC(=C2c3ccc(Cl)cc3CCc3cc(Br)cnc32)CC1` [Example 73] gave an IC50 of 26 nM.
With `CCOC(=NC#N)N1CCC(=C2c3ccc(Cl)cc3CCc3cc(Br)cnc32)CC1` [Example 16] the IC50 was 54 nM.
Work on `N#CN=C(NCc1ccncc1)N1CCN(C2c3ccc(Cl)cc3CCc3cc(Br)cnc32)CC1` (stereo not drawn) [Example 43] yielded an IC50 of 11 nM.
With `N#CN=C(NCc1ccco1)N1CCC(=C2c3ccc(Cl)cc3CCc3cc(Br)cnc32)CC1` [Example 51] the IC50 was 73 nM.
In the case of `N#CN=C(Nc1ccc2c(c1)COCO2)N1CCC(=C2c3ccc(Cl)cc3CCc3cccnc32)CC1` [Example 10], the IC50 is reported as 18 nM.
In the case of `N#CN=C(Nc1ccc2c(c1)COCO2)N1CCC(C2c3ccc(Cl)cc3C=Cc3cc(Br)cnc32)CC1` (stereo not drawn) [Example 34], the IC50 is reported as 9600 nM.
With `CS(=O)(=O)c1ccc(N/C(=N\C#N)N2CCC(=C3c4ccc(Cl)cc4CCc4cc(Br)cnc43)CC2)cc1` [Example 59] the IC50 was 87 nM.
With `N#CN=C(c1ccncc1)N1CCC(C2c3ncc(Br)cc3CCc3cc(Cl)cc(Br)c32)CC1` (stereo not drawn) [Example 83] the IC50 was > 33 nM.
With `N#CN=C(NCCOCCO)N1CCC(C2c3ccc(Cl)c(Br)c3CCc3cc(Br)cnc32)CC1` (stereo not drawn) [Example 69] the IC50 was 3.7 nM.
For `N#CN=C(N1CCCCC1)N1CCC(=C2c3ccc(Cl)cc3CCc3cc(Br)cnc32)CC1` [Example 32], the IC50 was 270 nM.
`N#CN=C(NC1CCN(Cc2ccccc2)CC1)N1CCC(=C2c3ccc(Cl)cc3CCc3cc(Br)cnc32)CC1` [Example 22] was tested, and the IC50 was 170 nM.
`N#CN/C(=N/c1ccncc1)N1CCC(=C2c3ccc(Cl)cc3CCc3cc(Br)cnc32)CC1` [Example 54] was tested, and the IC50 was > 110 nM.
For `COc1ccc2[nH]cc(CCNC(=NC#N)N3CCC(=C4c5ccc(Cl)cc5CCc5cc(Br)cnc54)CC3)c2c1` [Example 64], the IC50 was > 950 nM.
In the case of `N#CN=C(NCc1ccncc1)N1CCC(=C2c3ccc(Cl)cc3CCc3cccnc32)CC1` [Example 78], the IC50 is reported as 64 nM.
`N#CN=C(Nc1ccc2c(c1)OCCO2)N1CCC(=C2c3ccc(Cl)cc3CCc3cc(Br)cnc32)CC1` [Example 55] was tested, and the IC50 was 110 nM.
In the case of `N#CN=C(N1CCOCC1)N1CCC(=C2c3ccc(Cl)cc3CCc3cc(Br)cnc32)CC1` [Example 13], the IC50 is reported as 720 nM.
In the case of `N#CN=C(NCCO)N1CCC(=C2c3ccc(Cl)cc3CCc3cc(Br)cnc32)CC1` [Example 27], the IC50 is reported as 17 nM.
Work on `N#CN=C(Nc1cc[n+]([O-])cc1)N1CCC(=C2c3ccc(Cl)cc3CCc3cc(Br)cnc32)CC1` [Example 49] yielded an IC50 of 13 nM.
With `N#CN=C(NCc1ccc(S(N)(=O)=O)cc1)N1CCC(=C2c3ccc(Cl)c(Br)c3CCc3cc(Br)cnc32)CC1` [Example 74] the IC50 was 15 nM.
Work on `CSC(=NC#N)N1CCC(=C2c3ccc(Cl)c(Br)c3CCc3cc(Br)cnc32)CC1` [Example 66] yielded an IC50 of 14 nM.
`N#CN=C(NCc1ccc[n+]([O-])c1)N1CCC(=C2c3ccc(Cl)c(Br)c3CCc3cc(Br)cnc32)CC1` [Example 81] gave an IC50 of 4.6 nM.
`CN(C)CCCNC(=NC#N)N1CCC(=C2c3ccc(Cl)cc3CCc3cc(Br)cnc32)CC1` [Example 45] was tested, and the IC50 was 74 nM.
For `N#CN=C(Nc1ccc(N2CCOCC2)cc1)N1CCC(=C2c3ccc(Cl)c(Br)c3CCc3cc(Br)cnc32)CC1` [Example 80], the IC50 was 38 nM.
`N#C/N=C(\Nc1ccc([N+](=O)[O-])cc1)N1CCC(=C2c3ccc(Cl)cc3CCc3cc(Br)cnc32)CC1` [Example 48] was tested, and the IC50 was 64 nM.
In the case of `CSC(=NC#N)N1CCC(=C2c3ccc(Cl)cc3CCc3cc(Br)cnc32)CC1` [Example 12], the IC50 is reported as < 410 nM.
In the case of `N#CN=C(NCc1ccc2c(c1)OCO2)N1CCC(=C2c3ccc(Cl)c(Br)c3CCc3cc(Br)cnc32)CC1` [Example 72], the IC50 is reported as > 100 nM.
`N#CN=C(NCC1CCN(C(N)=O)CC1)N1CCC(=C2c3ccc(Cl)c(Br)c3CCc3cc(Br)cnc32)CC1` [Example 77] gave an IC50 of 4.4 nM.
Compound `N#CN=C(NCCCN1CCCC1=O)N1CCC(C2c3ccc(Cl)c(Br)c3CCc3cc(Br)cnc32)CC1` (stereo not drawn) [Example 68] has an IC50 of 7 nM.

What follows are compounds tested on Ras processing (assay: COS IC50, cell-based assay: COS cells activity inhibition of Ras processing).
Experimental: 2. Cell-based assay. COS IC50 values refer to the COS cells activity inhibition of Ras processing, are determined by the methods disclosed in […] or WO 95/10516.
`N#CN=C(Nc1ccc(F)cc1)N1CCC(=C2c3ccc(Cl)cc3CCc3cc(Br)cnc32)CC1` [Example 29] gave an IC50 of 570 nM.
Compound `N#CN=C(Nc1cccnc1)N1CCC(=C2c3ccc(Cl)cc3CCc3cc(Br)cnc32)CC1` [Example 23] has an IC50 of 2400 nM.
`N#CN=C(NC1CCCCC1)N1CCC(=C2c3ccc(Cl)cc3CCc3cc(Br)cnc32)CC1` [Example 19] showed an IC50 of 480 nM.
For `COc1ccc(NC(=NC#N)N2CCC(=C3c4ccc(Cl)cc4CCc4cc(Br)cnc43)CC2)cc1` [Example 25], the IC50 was 270 nM.
In the case of `N#CN=C(NCc1ccc[n+]([O-])c1)N1CCC(=C2c3ccc(Cl)cc3CCc3cc(Br)cnc32)CC1` [Example 60], the IC50 is reported as > 1000 nM.
`CCCCNC(=NC#N)N1CCC(=C2c3ccc(Cl)cc3CCc3cc(Br)cnc32)CC1` [Example 20] showed an IC50 of 1600 nM.
With `N#CN=C(Nc1ccc2c(c1)COCO2)N1CCN(C2c3ccc(Cl)cc3CCc3cc(Br)cnc32)CC1` (stereo not drawn) [Example 24] the IC50 was < 250 nM.
`N#CN=C(NCc1ccccn1)N1CCC(=C2c3ccc(Cl)cc3CCc3cc(Br)cnc32)CC1` [Example 26] gave an IC50 of 750 nM.
Compound `N#CN=C(Nc1ccc2c(c1)OCO2)N1CCC(=C2c3ccc(Cl)cc3CCc3cc(Br)cnc32)CC1` [Example 18] has an IC50 of 800 nM.
Compound `CCOC(=NC#N)N1CCC(=C2c3ccc(Cl)cc3CCc3cc(Br)cnc32)CC1` [Example 16] has an IC50 of 2300 nM.
Compound `N#CN=C(Nc1ccc2c(c1)COCO2)N1CCC(=C2c3ccc(Cl)cc3CCc3cc(Br)cnc32)CC1` [Example 11] has an IC50 of 250 nM.
Work on `CCOC(=O)N1CCC(NC(=NC#N)N2CCC(=C3c4ccc(Cl)cc4CCc4cc(Br)cnc43)CC2)CC1` [Example 15] yielded an IC50 of 560 nM.
In the case of `N#CN=C(NCCc1ccncc1)N1CCC(=C2c3ccc(Cl)cc3CCc3cc(Br)cnc32)CC1` [Example 36], the IC50 is reported as 280 nM.
`N#CN=C(Nc1ccc2c(c1)COCO2)N1CCC(=C2c3ccc(Cl)cc3CCc3cccnc32)CC1` [Example 10] was tested, and the IC50 was 250 nM.
Compound `N#CN=C(NCCCn1ccnc1)N1CCC(=C2c3ccc(Cl)cc3CCc3cc(Br)cnc32)CC1` [Example 42] has an IC50 of 4000 nM.
`N#CN=C(NCc1cccnc1)N1CCC(=C2c3ccc(Cl)cc3CCc3cc(Br)cnc32)CC1` [Example 41] showed an IC50 of 700 nM.
With `N#CN=C(NCCO)N1CCC(=C2c3ccc(Cl)cc3CCc3cc(Br)cnc32)CC1` [Example 27] the IC50 was 2600 nM.
Compound `CNC(=NC#N)N1CCC(=C2c3ccc(Cl)cc3CCc3cc(Br)cnc32)CC1` [Example 17] has an IC50 of 5000 nM.
`N#CN=C(Nc1ccc(C#N)cc1)N1CCC(=C2c3ccc(Cl)cc3CCc3cc(Br)cnc32)CC1` [Example 37] showed an IC50 of 280 nM.
Work on `N#CN=C(NCc1cc[n+]([O-])cc1)N1CCC(=C2c3ccc(Cl)cc3CCc3cc(Br)cnc32)CC1` [Example 70] yielded an IC50 of 16000 nM.
Compound `N#CN=C(Nc1ccccc1)N1CCC(=C2c3ccc(Cl)cc3CCc3cccnc32)CC1` [Example 14] has an IC50 of 2500 nM.

Source: patent publication US5925648A, “Tricyclic N-cyanoimines useful as inhibitors of a farnesyl-protein transferase” (Schering Corporation, priority 1997, dated 1999)
